Measurements published in ChEMBL document CHEMBL3856187, “Cyclin Dependent Kinase 9 Inhibitors for Cancer Therapy” (J Med Chem, 2016).

Experiments:
[1] = Cytotoxicity against human HeLa cells assessed as decrease in cell viability after 72 hrs by MTT assay; assay type: toxicity, cell-based
Homo sapiens = assay: Anticancer activity in human AML patient assessed as improvement in remission rate at 50 mg/m2, iv for 1 to 3 days followed by cytarabine dose at 667 mg/m2/day as 72 hrs continuous infusion for 6 to 8 days and mitoxantrone at 40 mg/m2 administered on day 9; assay type: functional
CDK7/Cyclin H/MNAT1 = CDK7/Cyclin H/MNAT1 (Homo sapiens, UniProt P50613); assay: Inhibition of CDK7/cyclin H/MAT1 (unknown origin); assay type: protein-complex assay
[2] = target: Cyclin-dependent kinase 4/cyclin D1 (Homo sapiens, UniProt P11802); assay: Inhibition of human N-terminal GST-tagged CDK4/cyclin D1 expressed in baculovirus infected Sf9 insect cells using retinoblastoma (792 to 928 residues) as substrate after 30 mins by gamma32P-ATP based scintillation counting analysis
[3] = target: Cyclin-dependent kinase 1/cyclin B1 (Homo sapiens, UniProt P06493); assay type: protein-complex assay
Description: Inhibition of CDK1/cyclin B (unknown origin)

CDK2/Cyclin A2 [4] = target: T1, CDK2/Cyclin A2 (Homo sapiens, UniProt P24941); assay: Inhibition of recombinant human N-terminal GST-tagged CDK2/cyclin A expressed in baculovirus expression system using retinoblastoma (792 to 928 residues) as substrate after 30 mins by gamma32P-ATP based scintillation counting analysis
[5] = Inhibition of CDK6/cyclin D (unknown origin); design: species or system Homo sapiens
[6] = target: Cyclin-dependent kinase 2/cyclin E1 (Homo sapiens, UniProt P24941); assay: Inhibition of human CDK2/cyclin E expressed in baculovirus infected Sf9 insect cells using retinoblastoma (792 to 928 residues) as substrate after 30 mins by gamma32P-ATP based scintillation counting analysis
[7] = target: Cyclin-dependent kinase 7/ cyclin H (Homo sapiens, UniProt P50613); assay: Inhibition of CDK7/cyclin H (unknown origin); assay type: protein-complex assay
CDK2/Cyclin A2 [8] = target: T1, CDK2/Cyclin A2; assay: Inhibition of CDK2/cyclin A (unknown origin); assay type: protein-complex assay
[9] = target: Cyclin-dependent kinase 4/G1/S-specific cyclin-E1 (Homo sapiens, UniProt P11802); assay: Inhibition of CDK4/cyclin E (unknown origin); assay type: protein-complex assay
[10] = target: Cyclin-dependent kinase 5/CDK5 activator 1 (Homo sapiens, UniProt Q00535); assay: Inhibition of CDK5/p25 (unknown origin); assay type: protein-complex assay
Cyclin-dependent kinase 5/CDK5 activator 1, sequence (Q00535 whole entry): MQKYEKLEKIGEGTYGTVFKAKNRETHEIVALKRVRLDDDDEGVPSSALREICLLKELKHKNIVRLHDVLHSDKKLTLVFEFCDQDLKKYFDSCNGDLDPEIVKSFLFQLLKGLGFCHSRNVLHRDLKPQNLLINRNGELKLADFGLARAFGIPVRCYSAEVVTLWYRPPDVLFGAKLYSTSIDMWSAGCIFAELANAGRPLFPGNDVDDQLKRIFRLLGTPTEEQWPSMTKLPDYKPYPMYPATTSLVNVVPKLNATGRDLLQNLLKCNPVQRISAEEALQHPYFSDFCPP
Cyclin-dependent kinase 5/CDK5 activator 1, sequence (Q15078 whole entry, further chain): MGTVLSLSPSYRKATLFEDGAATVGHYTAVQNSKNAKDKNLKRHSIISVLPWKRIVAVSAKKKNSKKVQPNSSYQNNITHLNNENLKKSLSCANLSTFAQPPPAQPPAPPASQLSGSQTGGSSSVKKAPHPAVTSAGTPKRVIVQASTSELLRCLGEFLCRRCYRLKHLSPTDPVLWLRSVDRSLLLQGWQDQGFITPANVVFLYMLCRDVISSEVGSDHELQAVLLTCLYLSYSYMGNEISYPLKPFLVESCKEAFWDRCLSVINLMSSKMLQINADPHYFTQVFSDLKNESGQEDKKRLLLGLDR

Cyclin-dependent kinase 1/cyclin B1, sequence (P06493 whole entry, the tested form may be a part): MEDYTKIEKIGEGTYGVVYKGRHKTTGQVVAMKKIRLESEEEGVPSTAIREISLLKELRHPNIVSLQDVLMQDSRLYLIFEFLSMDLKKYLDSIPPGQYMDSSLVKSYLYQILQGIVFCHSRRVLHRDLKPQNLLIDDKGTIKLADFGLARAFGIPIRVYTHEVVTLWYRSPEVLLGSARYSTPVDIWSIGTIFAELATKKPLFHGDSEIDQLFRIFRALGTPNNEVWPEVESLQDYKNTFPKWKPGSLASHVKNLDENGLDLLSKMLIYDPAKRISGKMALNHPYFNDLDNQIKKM
Cyclin-dependent kinase 1/cyclin B1, sequence (P14635 whole entry, further chain, the tested form may be a part): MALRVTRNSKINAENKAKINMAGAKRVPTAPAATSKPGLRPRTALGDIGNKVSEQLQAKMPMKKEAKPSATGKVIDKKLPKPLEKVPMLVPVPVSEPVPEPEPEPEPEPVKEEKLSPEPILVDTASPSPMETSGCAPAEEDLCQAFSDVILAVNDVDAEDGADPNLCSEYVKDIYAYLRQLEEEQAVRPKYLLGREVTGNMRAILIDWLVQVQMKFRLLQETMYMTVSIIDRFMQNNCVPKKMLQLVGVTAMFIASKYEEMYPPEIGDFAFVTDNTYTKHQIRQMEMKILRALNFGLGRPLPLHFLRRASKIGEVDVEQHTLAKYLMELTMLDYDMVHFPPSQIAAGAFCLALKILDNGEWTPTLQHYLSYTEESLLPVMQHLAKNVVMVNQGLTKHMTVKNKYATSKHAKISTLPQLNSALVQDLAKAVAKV
Cyclin-dependent kinase 7/ cyclin H, sequence (P51946 whole entry): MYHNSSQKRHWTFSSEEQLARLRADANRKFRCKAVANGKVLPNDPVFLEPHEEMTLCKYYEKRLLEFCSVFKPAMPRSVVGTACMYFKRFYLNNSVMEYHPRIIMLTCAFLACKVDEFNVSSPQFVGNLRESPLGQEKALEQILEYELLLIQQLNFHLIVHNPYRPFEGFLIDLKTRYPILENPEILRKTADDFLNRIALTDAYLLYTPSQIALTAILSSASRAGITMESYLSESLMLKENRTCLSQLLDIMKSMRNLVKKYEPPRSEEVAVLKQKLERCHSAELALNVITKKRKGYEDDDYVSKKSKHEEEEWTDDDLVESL
Cyclin-dependent kinase 7/ cyclin H, sequence (P50613 whole entry): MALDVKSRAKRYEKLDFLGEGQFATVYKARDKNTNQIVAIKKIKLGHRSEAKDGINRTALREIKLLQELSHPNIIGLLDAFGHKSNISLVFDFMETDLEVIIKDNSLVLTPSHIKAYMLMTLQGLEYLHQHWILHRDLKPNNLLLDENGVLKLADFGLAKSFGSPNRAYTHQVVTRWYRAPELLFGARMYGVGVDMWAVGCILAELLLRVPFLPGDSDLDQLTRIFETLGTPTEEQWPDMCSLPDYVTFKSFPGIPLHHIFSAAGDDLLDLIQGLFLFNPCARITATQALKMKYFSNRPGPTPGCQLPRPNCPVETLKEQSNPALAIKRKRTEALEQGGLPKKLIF
CDK7/Cyclin H/MNAT1, sequence (P51946 whole entry, the tested form may be a part): as the sequence (P51946 whole entry) above
CDK7/Cyclin H/MNAT1, sequence (P50613 whole entry, the tested form may be a part): as the sequence (P50613 whole entry) above
CDK7/Cyclin H/MNAT1, sequence (P51948 whole entry, further chain, the tested form may be a part): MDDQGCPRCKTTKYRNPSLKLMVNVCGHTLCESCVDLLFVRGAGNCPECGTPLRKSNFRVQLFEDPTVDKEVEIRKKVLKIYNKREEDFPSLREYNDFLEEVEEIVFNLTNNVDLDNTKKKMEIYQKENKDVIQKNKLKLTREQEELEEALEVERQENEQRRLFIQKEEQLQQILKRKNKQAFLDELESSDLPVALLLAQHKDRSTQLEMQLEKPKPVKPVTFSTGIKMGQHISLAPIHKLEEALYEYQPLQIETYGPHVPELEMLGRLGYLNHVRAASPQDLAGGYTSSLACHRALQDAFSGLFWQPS
Cyclin-dependent kinase 4/cyclin D1, sequence (P11802 whole entry, the tested form may be a part): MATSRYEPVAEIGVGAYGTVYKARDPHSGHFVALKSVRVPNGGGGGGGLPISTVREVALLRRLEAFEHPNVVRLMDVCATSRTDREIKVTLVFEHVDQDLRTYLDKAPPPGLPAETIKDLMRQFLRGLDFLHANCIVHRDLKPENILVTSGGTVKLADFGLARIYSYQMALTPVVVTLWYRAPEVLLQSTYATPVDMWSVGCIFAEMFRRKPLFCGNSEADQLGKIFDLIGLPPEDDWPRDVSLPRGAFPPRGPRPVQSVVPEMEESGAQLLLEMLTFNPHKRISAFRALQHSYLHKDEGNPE
Cyclin-dependent kinase 4/cyclin D1, sequence (P24385 whole entry, further chain, the tested form may be a part): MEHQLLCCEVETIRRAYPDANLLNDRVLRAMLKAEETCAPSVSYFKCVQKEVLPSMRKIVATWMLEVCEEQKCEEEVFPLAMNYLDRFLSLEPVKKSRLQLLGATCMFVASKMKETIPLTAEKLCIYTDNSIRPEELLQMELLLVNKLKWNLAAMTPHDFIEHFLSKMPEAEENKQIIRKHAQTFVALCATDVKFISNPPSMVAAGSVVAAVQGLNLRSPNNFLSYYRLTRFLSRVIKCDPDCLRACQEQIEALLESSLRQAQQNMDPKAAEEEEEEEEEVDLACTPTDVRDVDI
Cyclin-dependent kinase 4/G1/S-specific cyclin-E1, sequence (P11802 whole entry): as the sequence (P11802 whole entry, the tested form may be a part) above
Cyclin-dependent kinase 4/G1/S-specific cyclin-E1, sequence (P24864 whole entry, further chain): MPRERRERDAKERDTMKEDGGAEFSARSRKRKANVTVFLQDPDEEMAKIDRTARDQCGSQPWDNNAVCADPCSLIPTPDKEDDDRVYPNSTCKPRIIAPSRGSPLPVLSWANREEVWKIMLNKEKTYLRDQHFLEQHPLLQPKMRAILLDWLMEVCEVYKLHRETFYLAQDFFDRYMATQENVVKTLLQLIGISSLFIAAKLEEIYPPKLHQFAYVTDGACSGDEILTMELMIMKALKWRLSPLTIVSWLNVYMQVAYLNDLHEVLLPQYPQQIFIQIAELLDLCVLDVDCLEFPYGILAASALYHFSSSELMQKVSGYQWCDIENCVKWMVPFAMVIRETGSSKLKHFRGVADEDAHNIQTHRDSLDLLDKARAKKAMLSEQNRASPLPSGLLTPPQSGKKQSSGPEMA

Row | Structure (SMILES) | CC50 at 72 h [1] | Activity (Homo sapiens) | IC50 (CDK7/Cyclin H/MNAT1) | IC50 [2] | IC50 [3] | IC50 (CDK2/Cyclin A2 [4]) | IC50 [5] | IC50 [6] | IC50 [7] | IC50 (CDK2/Cyclin A2 [8]) | IC50 [9] | IC50 [10]
1 | CN1CC[C@H](c2c(O)cc(O)c3c(=O)cc(-c4ccccc4Cl)oc23)[C@H](O)C1 [ALVOCIDIB] | 0.12 µM | 67 - 80% | – | – | – | – | – | – | – | – | – | –
2 | CN1CC[C@@H](c2c(O)cc(O)c3c(=O)cc(-c4ccccc4Cl)oc23)[C@@H]1CO | – | – | 2.87 µM | 0.063 µM | 0.079 µM | 0.224 µM | 0.396 µM | 2.54 µM | – | – | – | –
3 | CC[C@H](Nc1nc(NCc2cnc(C)cc2C)c2ncn(C(C)C)c2n1)[C@@H](C)O [CYC-065] | – | – | – | – | 0.578 µM | – | – | – | 0.193 µM | 0.005 µM | 0.232 µM | 0.021 µM
